The results in this text go back to patent publication US8372617B2, “β-galactoside-α2,6-sialyltransferase, a gene encoding thereof, and a method for enhancing enzyme activity” (Japan Tobacco Inc., priority 2007, dated 2013).

Where “and” joins values, the source holds several entries; their conditions need not be identical. Equal entries are not always repeated.

The test system of this test is recombinant β-galactoside-α2,6-sialyltransferase N1C0. Description: Transfer of sialic acid to glycoproteins. Type of test: biochemical, Photobacterium leiognathi. The settings on record: enzyme +; 30° C. for 0.5 hours. How it is done: As a glycosyl acceptor substrate, asialofetuin and asialomucin were each used. Asialofetuin or asialomucin (2 mg) was dissolved in 1 ml of 20 mM Bis-Tris buffer (pH 7.0) and used as a glycosyl acceptor substrate solution. As a glycosyl donor substrate, CMP-NeuAc was used. The glycosyl acceptor substrate solution (40 μl), the glycosyl donor substrate (5 μl) and the enzyme solution (5 μl) were mixed and incubated at 30° C. for 0.5 hours to cause sialic acid transfer reaction. After completion of the reaction, the reaction solution was gel-filtered by being applied to a Sephadex G-50 Superfine (0.8×18.0 cm) equilibrated with 0.1 M sodium chloride. A glycoprotein-containing eluate fraction (2-4 ml fraction) from gel filtration was collected and measured for its radioactivity using a liquid scintillation counter to quantify sialic acid transferred to the glycosyl acceptor substrate.
Sequence of recombinant β-galactoside-α2,6-sialyltransferase N1C0 (as listed by the source): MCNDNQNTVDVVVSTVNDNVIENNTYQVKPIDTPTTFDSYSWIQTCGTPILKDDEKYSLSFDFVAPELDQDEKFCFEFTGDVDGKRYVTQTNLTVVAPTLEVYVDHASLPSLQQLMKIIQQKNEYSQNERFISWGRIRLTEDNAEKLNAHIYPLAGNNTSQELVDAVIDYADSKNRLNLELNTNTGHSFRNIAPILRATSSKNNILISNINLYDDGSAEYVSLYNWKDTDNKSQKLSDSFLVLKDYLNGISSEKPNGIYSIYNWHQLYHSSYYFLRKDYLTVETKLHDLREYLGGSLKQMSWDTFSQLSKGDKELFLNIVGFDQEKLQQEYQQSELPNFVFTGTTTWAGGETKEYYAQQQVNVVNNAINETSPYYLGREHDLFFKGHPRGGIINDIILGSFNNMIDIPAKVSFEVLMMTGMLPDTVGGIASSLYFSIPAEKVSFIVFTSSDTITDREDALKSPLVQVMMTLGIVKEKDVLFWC

For “Asialofetuin: glycoprotein used as glycosyl acceptor substrate”, the “NeuAc transferred (cpm)” value is 2140 cpm and 2038 cpm.
